Experimental data as given in the supplement of paper PMC10307832.

Tests used:
Experiment in all cases: relative viability (nuclei count vs DMSO), 5 days (fraction); higher = more cells survive
[1] = system: ABC-1
Summary of the method: (§1)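 Relative viability divides the nuclei count in treated wells by that in vehicle wells. Lung cancer cell lines were seeded in 1536-well plates, dosed by pin tool the next day, and fixed and stained after 5 days in one step with final 0.05% Triton X-100, 1% formaldehyde and 1 ug/ml Hoechst. Dosing was a single drug or a fixed anchor-drug dose plus five library-drug doses (not always all listed) in √10 steps, and values are medians of duplicate plates imaged at 4×.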

[2] = system: COR-L23
Summary of the method: as §1

[3] = system: ChaGo-K-1
Summary of the method: as §1

[4] = system: NCI-H1437
Summary of the method: as §1

[5] = system: NCI-H1623
Summary of the method: as §1

[6] = system: NCI-H1648
Summary of the method: as §1

[7] = system: NCI-H1651
Summary of the method: as §1

[8] = system: SK-MES-1
Summary of the method: as §1

[9] = system: SW 1573
Summary of the method: as §1

In the case of `CCN(CC)CCCCNc1ncc2cc(-c3cc(OC)cc(OC)c3)c(NC(=O)NC(C)(C)C)nc2n1` + Cc1cc(Nc2cc(N3CCN(C)CC3)nc(Sc3ccc(NC(=O)C4CC4)cc3)n2)n[nH]1 [Tozasertib] (partner 0.1 µM), the relative viability ([1]; first compound 0.01 µM) is reported as 0.211, the relative viability ([1]; first compound 0.03162 µM) is reported as 0.21 and the relative viability ([1]; first compound 0.1 µM) is reported as 0.207. For the same molecule, the relative viability ([1]; first compound 0.3162 µM) was 0.148, the relative viability ([1]; first compound 1 µM) was 0.187 and the relative viability ([2]; first compound 0.01 µM) was 0.226. It also gave a relative viability ([2]; first compound 0.03162 µM) of 0.205, a relative viability ([2]; first compound 0.1 µM) of 0.157 and a relative viability ([2]; first compound 0.3162 µM) of 0.206. For the same molecule, the relative viability ([2]; first compound 1 µM) was 0.171, the relative viability ([3]; first compound 0.01 µM) was 0.233 and the relative viability ([3]; first compound 0.03162 µM) was 0.213. For the same molecule, the relative viability ([3]; first compound 0.1 µM) was 0.223, the relative viability ([3]; first compound 0.3162 µM) was 0.242 and the relative viability ([3]; first compound 1 µM) was 0.219. It also gave a relative viability ([4]; first compound 0.01 µM) of 0.426, a relative viability ([4]; first compound 0.03162 µM) of 0.403 and a relative viability ([4]; first compound 0.1 µM) of 0.374. It also gave a relative viability ([4]; first compound 0.3162 µM) of 0.46, a relative viability ([4]; first compound 1 µM) of 0.335 and a relative viability ([5]; first compound 0.01 µM) of 0.67. The relative viability ([5]; first compound 0.03162 µM) was 0.454, the relative viability ([5]; first compound 0.1 µM) was 0.43 and the relative viability ([5]; first compound 0.3162 µM) was 0.513. The relative viability ([5]; first compound 1 µM) was 0.416, the relative viability ([6]; first compound 0.01 µM) was 0.657 and the relative viability ([6]; first compound 0.03162 µM) was 0.559. The relative viability ([6]; first compound 0.1 µM) was 0.406, the relative viability ([6]; first compound 0.3162 µM) was 0.4 and the relative viability ([6]; first compound 1 µM) was 0.407. For the same molecule, the relative viability ([7]; first compound 0.01 µM) was 0.747, the relative viability ([7]; first compound 0.03162 µM) was 0.716 and the relative viability ([7]; first compound 0.1 µM) was 0.907. For the same molecule, the relative viability ([7]; first compound 0.3162 µM) was 0.714, the relative viability ([7]; first compound 1 µM) was 0.661 and the relative viability ([8]; first compound 0.01 µM) was 1.01. The relative viability ([8]; first compound 0.03162 µM) was 1.02, the relative viability ([8]; first compound 0.1 µM) was 1.1 and the relative viability ([8]; first compound 0.3162 µM) was 1.03. The relative viability ([8]; first compound 1 µM) was 0.879, the relative viability ([9]; first compound 0.01 µM) was 0.249 and the relative viability ([9]; first compound 0.03162 µM) was 0.148. It also gave a relative viability ([9]; first compound 0.1 µM) of 0.225, a relative viability ([9]; first compound 0.3162 µM) of 0.193 and a relative viability ([9]; first compound 1 µM) of 0.173.

Work on `O=c1cc(-c2cccc3c2Sc2ccccc2S3)oc(N2CCOCC2)c1` + COc1cccc2cc(-c3nc([C@H]4CC[C@H](C(=O)O)CC4)n4ncnc(N)c34)[nH]c12 [OSI-027] (partner 0.5 µM) yielded a relative viability ([1]; first compound 0.08 µM) of 0.501, a relative viability ([1]; first compound 0.253 µM) of 0.478 and a relative viability ([1]; first compound 0.8 µM) of 0.609. It also gave a relative viability ([1]; first compound 2.53 µM) of 0.452, a relative viability ([1]; first compound 8 µM) of 0.445 and a relative viability ([2]; first compound 0.08 µM) of 0.8. It also gave a relative viability ([2]; first compound 0.253 µM) of 1.21, a relative viability ([2]; first compound 0.8 µM) of 0.892 and a relative viability ([2]; first compound 2.53 µM) of 0.801. The relative viability ([2]; first compound 8 µM) was 1, the relative viability ([3]; first compound 0.08 µM) was 0.524 and the relative viability ([3]; first compound 0.253 µM) was 0.615. It also gave a relative viability ([3]; first compound 0.8 µM) of 0.479, a relative viability ([3]; first compound 2.53 µM) of 0.385 and a relative viability ([3]; first compound 8 µM) of 0.63. The relative viability ([4]; first compound 0.08 µM) was 0.885, the relative viability ([4]; first compound 0.253 µM) was 1.17 and the relative viability ([4]; first compound 0.8 µM) was 1.01. It also gave a relative viability ([4]; first compound 2.53 µM) of 0.891, a relative viability ([4]; first compound 8 µM) of 1.02 and a relative viability ([5]; first compound 0.08 µM) of 0.593. The relative viability ([5]; first compound 0.253 µM) was 0.447, the relative viability ([5]; first compound 0.8 µM) was 0.346 and the relative viability ([5]; first compound 2.53 µM) was 0.431. For the same molecule, the relative viability ([5]; first compound 8 µM) was 0.374, the relative viability ([6]; first compound 0.08 µM) was 0.264 and the relative viability ([6]; first compound 0.253 µM) was 0.257. It also gave a relative viability ([6]; first compound 0.8 µM) of 0.277, a relative viability ([6]; first compound 2.53 µM) of 0.22 and a relative viability ([6]; first compound 8 µM) of 0.252. The relative viability ([7]; first compound 0.08 µM) was 0.625, the relative viability ([7]; first compound 0.253 µM) was 0.767 and the relative viability ([7]; first compound 0.8 µM) was 0.711. For the same molecule, the relative viability ([7]; first compound 2.53 µM) was 0.6, the relative viability ([7]; first compound 8 µM) was 0.702 and the relative viability ([8]; first compound 0.08 µM) was 0.534. For the same molecule, the relative viability ([8]; first compound 0.253 µM) was 0.633, the relative viability ([8]; first compound 0.8 µM) was 0.601 and the relative viability ([8]; first compound 2.53 µM) was 0.521. For the same molecule, the relative viability ([8]; first compound 8 µM) was 0.547, the relative viability ([9]; first compound 0.08 µM) was 0.514 and the relative viability ([9]; first compound 0.253 µM) was 0.797. It also gave a relative viability ([9]; first compound 0.8 µM) of 0.703, a relative viability ([9]; first compound 2.53 µM) of 0.613 and a relative viability ([9]; first compound 8 µM) of 0.728.
